Reference: article PMC10714399, “Open Source Antibiotics: Simple Diarylimidazoles Are Potent against Methicillin-Resistant Staphylococcus aureus” (ACS Infectious Diseases, 2023)

Biological target: T1, kinases of HEK293 cell lysate (TGFBR1) (Homo sapiens, UniProt P36897)
T1 construct: endogenous in cells; host or cells: HEK293 cell lysate
Assay: MIB-MS kinase competition assay in HEK293 cell lysate
Type: binding
Details: 1 μM
Procedure: To understand the mammalian toxicity of these diarylimidazole derivatives and to aid in future compound design, we experimentally investigated the potential series’ mechanism of action (MoA). […] This affinity composition assay has proven to be a useful approach to validate kinase inhibitor selectivity. […] Whether the inhibition of TGF-β1 contributes to the cytotoxicity observed remains to be determined.
Following a brief incubation with these compounds, lysates were passed over MIBs (see Supporting Information - Biology), and the captured kinases were identified and quantified by mass spectrometry. Displaced kinases are shown to the left of the center line at the designated doses.
Differential abundance (increase or decrease in MIB binding) was determined for kinases identified. The mass spectrometry proteomics data have been deposited to the ProteomeXchange Consortium via the PRIDE[43] partner repository with the dataset identifier PXD040208.
EphB2 TRKB FGFR1 FGFR4 EphB2 TRKB FGFR1 FGFR4
EphA5 EphB1 ROR2 FLT1 FmS/CSFR EphA5 EphB1 ROR2 FLT1 FmS/CSFR
MUSK ROR1Ret Kit MUSK ROR1Ret Kit
EphB3 DDR2 Mer EphB3 DDR2 Mer
EphA3EphA4 DDR1 Axl Tyro/SkyFLT4 PDGFRα EphA3EphA4 DDR1 AxlTyro/SkyFLT4 PDGFRα
IRR FLT3PDGFRβ IRR FLT3PDGFRβ
EphA6 IGF1R HER2 EphA6 IGF1R HER2
Yes InSR Met EGFR Yes InSR Met EGFR
Branch Color Src EphB4 Ron MLK3 Branch Color Src EphB4 Ron MLK3
Lyn EphA7 ALK TIE2 Lyn EphA7 ALK TIE2 […]

T1 sequence (P36897 34-503): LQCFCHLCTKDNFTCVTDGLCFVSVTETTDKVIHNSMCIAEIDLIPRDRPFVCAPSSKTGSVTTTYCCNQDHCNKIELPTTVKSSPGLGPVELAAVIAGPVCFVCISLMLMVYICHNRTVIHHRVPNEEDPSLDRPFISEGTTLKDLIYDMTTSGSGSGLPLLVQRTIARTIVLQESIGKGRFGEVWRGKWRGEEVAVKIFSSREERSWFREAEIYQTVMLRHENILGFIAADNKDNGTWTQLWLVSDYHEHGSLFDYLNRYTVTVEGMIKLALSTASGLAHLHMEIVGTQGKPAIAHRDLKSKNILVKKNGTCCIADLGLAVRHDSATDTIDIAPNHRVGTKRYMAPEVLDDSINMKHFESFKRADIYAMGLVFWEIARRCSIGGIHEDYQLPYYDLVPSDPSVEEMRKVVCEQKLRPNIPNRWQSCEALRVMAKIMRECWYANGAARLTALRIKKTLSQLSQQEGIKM

competition of kinases (TGFBR1) off MIBs: selectively competed off MIBs
SMILES: c1ccc(-c2nc3n(c2-c2ccc4sccc4c2)CCC3)nc1 [compound 822]
